In US20210047324A1 (Aptinyx Inc., priority 2018, published 2021):
Like-named read-outs stand apart in the source and are kept apart here.

Tests used:
Plasma stability (Rat) = assay type: in vitro ADME; conditions: after 60 minutes
Procedure: (§1) Plasma stability of disclosed compounds was investigated. The following table indicates the percent of compound remaining after 60 minutes.

[1] = Microsomal stability (Human); assay type: in vitro ADME; conditions: after 60 minutes
Procedure: (§2) Microsomal stability of disclosed compounds was investigated. The following table indicates the percent of compound remaining after 60 minutes.

NMDAR2A = molecular target: T1, NMDAR2A (Homo sapiens, UniProt Q12879); test: NMDAR agonist assay, [3H]MK-801 binding, NMDAR2A expressing HEK cell membranes; assay type: biochemical; set-up: key to NMDAR2A B: log EC50: 0=−; ≥1×10^−9 M (e.g., −8)=+; <1×10^−9 M (e.g., −10)=++; conditions: 50 μM glutamate; for EC50: read-out: NMDAR2A B: log EC50 (converted); for Emax: 0.25 h, read-out: NMDAR2A A: % maximal [3H]MK-801 binding relative to 1 mM glycine
T1 construct: expressed in transfected cells; host or cells: HEK cells (membrane extract)
T1 sequence (Q12879 23-1464, species assumed, other chains not shown): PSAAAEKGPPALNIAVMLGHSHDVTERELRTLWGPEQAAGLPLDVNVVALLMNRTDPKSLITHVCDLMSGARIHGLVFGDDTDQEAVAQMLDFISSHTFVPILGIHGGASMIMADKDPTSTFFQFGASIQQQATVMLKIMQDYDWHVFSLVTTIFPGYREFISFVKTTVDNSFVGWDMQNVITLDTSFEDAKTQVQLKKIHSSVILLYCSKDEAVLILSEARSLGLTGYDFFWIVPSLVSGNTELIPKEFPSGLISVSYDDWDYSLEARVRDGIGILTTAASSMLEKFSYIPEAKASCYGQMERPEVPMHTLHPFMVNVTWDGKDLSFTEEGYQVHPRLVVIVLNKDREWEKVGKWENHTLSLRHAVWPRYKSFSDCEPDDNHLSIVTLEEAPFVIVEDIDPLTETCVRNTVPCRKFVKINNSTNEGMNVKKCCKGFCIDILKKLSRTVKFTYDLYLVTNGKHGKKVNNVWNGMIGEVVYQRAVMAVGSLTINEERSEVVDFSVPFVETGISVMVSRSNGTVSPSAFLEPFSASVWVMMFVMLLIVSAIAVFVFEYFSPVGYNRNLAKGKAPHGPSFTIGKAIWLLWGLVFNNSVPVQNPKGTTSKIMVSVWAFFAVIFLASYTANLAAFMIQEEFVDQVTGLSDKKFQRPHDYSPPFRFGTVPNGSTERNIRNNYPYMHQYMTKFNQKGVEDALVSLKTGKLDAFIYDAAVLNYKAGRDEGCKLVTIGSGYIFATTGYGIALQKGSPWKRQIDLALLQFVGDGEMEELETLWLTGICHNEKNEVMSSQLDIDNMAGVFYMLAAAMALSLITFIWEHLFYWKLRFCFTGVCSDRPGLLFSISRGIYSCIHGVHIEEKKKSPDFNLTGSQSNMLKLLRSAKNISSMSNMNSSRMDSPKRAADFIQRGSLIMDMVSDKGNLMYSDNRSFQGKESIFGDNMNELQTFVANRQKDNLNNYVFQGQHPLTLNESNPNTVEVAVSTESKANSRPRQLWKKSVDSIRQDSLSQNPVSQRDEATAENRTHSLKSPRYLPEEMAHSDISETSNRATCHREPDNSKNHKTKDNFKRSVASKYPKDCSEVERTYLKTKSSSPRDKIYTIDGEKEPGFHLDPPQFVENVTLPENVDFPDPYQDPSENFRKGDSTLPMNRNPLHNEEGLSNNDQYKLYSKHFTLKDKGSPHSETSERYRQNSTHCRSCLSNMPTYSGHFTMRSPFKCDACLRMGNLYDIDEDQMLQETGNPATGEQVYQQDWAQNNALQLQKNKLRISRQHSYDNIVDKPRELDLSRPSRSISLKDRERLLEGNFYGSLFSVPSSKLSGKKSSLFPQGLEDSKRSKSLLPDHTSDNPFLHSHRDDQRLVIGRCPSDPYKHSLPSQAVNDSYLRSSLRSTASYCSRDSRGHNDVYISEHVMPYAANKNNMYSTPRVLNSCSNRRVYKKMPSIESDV
How it was run: (§3)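 Membranes from HEK cells (300 μg protein) preincubated 15 min with 50 μM glutamate plus compound (1×10^−15–1×10^−7 M) or 1 mM glycine, then with 0.3 μCi [3H]MK-801 for 15 min at 25° C. (nonequilibrium); filter-bound DPM, baseline-subtracted, expressed as % of 1 mM glycine; EC50 and % maximum from three-parameter fit.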

[2] = IV pharmacokinetics in Sprague Dawley rats; assay type: in vivo; conditions: rat, 2 mg/kg, normal saline; for Vd: read-out: Vss
Procedure: Sprague Dawley rats were dosed intravenously using a normal saline formulation containing 2 mg/kg of the compounds identified in the below table. The table below summarizes the results of the IV pharmacokinetics.

NMDAR2C = molecular target: T2, NMDAR2C (Homo sapiens, UniProt Q14957); test: NMDAR agonist assay, [3H]MK-801 binding, NMDAR2C expressing HEK cell membranes; assay type: biochemical; conditions: 50 μM glutamate; for EC50: read-out: NMDAR2C B: log EC50 (converted)
T2 construct: expressed in transfected cells; host or cells: HEK cells (membrane extract)
T2 sequence (Q14957 20-1233, species assumed, other chains not shown): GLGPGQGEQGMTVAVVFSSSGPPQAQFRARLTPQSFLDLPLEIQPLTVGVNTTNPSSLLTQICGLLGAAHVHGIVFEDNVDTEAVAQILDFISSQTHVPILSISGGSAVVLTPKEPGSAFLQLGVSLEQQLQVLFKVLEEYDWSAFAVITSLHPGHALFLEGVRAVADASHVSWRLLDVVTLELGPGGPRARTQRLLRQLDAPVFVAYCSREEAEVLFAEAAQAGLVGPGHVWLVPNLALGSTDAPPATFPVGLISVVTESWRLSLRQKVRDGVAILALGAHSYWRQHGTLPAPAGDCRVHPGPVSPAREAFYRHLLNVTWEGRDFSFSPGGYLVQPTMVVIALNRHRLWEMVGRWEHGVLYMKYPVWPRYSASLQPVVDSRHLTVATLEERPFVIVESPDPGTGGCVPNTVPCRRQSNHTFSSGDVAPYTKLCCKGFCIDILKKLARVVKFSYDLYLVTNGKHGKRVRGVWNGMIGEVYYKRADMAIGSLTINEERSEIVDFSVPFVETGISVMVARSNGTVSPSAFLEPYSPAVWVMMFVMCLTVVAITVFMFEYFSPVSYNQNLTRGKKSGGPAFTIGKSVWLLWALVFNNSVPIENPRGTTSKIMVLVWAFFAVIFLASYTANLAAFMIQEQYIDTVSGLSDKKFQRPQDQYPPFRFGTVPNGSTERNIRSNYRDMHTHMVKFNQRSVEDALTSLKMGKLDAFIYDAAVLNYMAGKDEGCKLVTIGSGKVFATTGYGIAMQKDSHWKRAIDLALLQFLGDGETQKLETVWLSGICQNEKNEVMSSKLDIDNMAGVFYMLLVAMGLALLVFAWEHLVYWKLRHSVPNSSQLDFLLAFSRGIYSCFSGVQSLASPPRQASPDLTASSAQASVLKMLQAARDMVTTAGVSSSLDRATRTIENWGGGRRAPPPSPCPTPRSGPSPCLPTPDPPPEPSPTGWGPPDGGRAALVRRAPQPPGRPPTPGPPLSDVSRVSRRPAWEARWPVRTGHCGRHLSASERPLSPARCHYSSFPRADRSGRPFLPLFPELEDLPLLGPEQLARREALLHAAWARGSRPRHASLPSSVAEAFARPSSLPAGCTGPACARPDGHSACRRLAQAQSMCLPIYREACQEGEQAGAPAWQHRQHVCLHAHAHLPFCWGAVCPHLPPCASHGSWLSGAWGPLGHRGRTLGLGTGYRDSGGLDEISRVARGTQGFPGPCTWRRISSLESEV
Procedure: (§4) Assays were conducted as described by Moskal et al., “GLYX-13: a monoclonal antibody-derived peptide that acts as an N-methyl-D-aspartate receptor modulator,” Neuropharmacology, 49, 1077-87, 2005. These studies were designed to determine if the test compounds act to facilitate NMDAR activation in NMDAR2A, NMDAR2B, NMDAR2C or NMDAR2D expressing HEK cell membranes as measured by increases in [^3H]MK-801 binding.
(§5) In the assay, 300 μg of NMDAR expressing HEK cell membrane extract protein was preincubated for 15 minutes at […] in the presence of saturating concentrations of glutamate (50 μM) and varying concentrations of test compound (1×10^−15M-1×10^−7M), or 1 mM glycine. Following the addition of 0.3 μCi of [3H]MK-801 (22.5 Ci/mmol), reactions were again incubated for 15 minutes at 25° C. (nonequilibrium conditions). Bound and free [3H]MK-801 were separated via rapid filtration using a Brandel apparatus.
(§6) In analyzing the data, the DPM (disintegrations per minute) of [3H]MK-801 remaining on the filter were measured for each concentration of test compound or for 1 mM glycine. The DPM values for each concentration of a ligand (N=2) were averaged. The baseline value was determined from the best fit curve of the DPM values modeled using the GraphPad program and the log(agonist) vs. response (three parameters) algorithm was then subtracted from all points in the dataset. The % maximal [^3H]MK-801 binding was then calculated relative to that of 1 mM glycine: all baseline subtracted DPM values were divided by the average value for 1 mM glycine. The EC50 and % maximal activity were then obtained from the best fit curve of the % maximal [3H]MK-801 binding data modelled using the GraphPad program and the log(agonist) vs. response (three parameters) algorithm.
(§7) The tables below summarize the results for the wild type […] NMDAR2A, NMDAR2B, NMDAR2C, and NMDAR2D, and whether the compound is not an agonist (−), is an agonist (+), or is a strong agonist (++), where column A is based on the % maximal [3H]MK-801 binding relative to 1 mM glycine (−=0; <100%=+; and >100%=++); and column B is based on log EC50 values (0=−; ≥1×10^−9 M (e.g., −8)=+; and <1×10^−9 M (e.g., −10)=++).

[3] = Microsomal stability (Rat); assay type: in vitro ADME; conditions: after 60 minutes
Procedure: as §2

Sprague Dawley rats = test: Porsolt forced swim test; assay type: in vivo; conditions: 0.1 mg/kg
Procedure: A non-clinical in vivo pharmacology study (Porsolt assay) was performed to measure antidepressant-like effects. The study allowed for the evaluation of the effects of each compound on the Porsolt forced swim test as assessed by the rats' response (reduced floating time) during a 5-minute swimming test.
Male 2-3 month old Sprague Dawley rats were used (Harlan, Indianapolis, Ind.). Rats were housed in Lucite cages with aspen wood chip bedding, maintained on a 12:12 light:dark cycle (lights on at 5 AM), and given ad libitum access to Purina lab chow (USA) and tap water throughout the study.
The Porsolt forced swim test adapted for use in rats was performed as described by Burgdorf et al., (The long-lasting antidepressant effects of rapastinel (GLYX-13) are associated with a metaplasticity process in the medial prefrontal cortex and hippocampus. Neuroscience 308:202-211, 2015). Animals were placed in a 46 cm tall×20 cm in diameter clear glass tube filled to 30 cm with tap water (23±1° C.) for 15 min on the first day (habituation) and 5 min on the subsequent test day. Animals were tested 1 h or 24 h post-dosing with the test compounds or vehicle control (0.5% sodium carboxymethyl cellulose in 0.9% sterile saline). A subset of compounds tested at 1 h post-dosing was tested again 1 wk post-dosing. Animals received a 15 min habituation session 1 day before the first 5 min test. Water was changed after every other animal. Animals were videotaped, and floating time as defined as the minimal amount of effort required to keep the animals head above water was scored offline by a blinded experimenter with high inter-rater reliability (Pearson's r >0.9).

NMDAR2B = molecular target: T3, NMDAR2B (Homo sapiens, UniProt Q13224); test: NMDAR agonist assay, [3H]MK-801 binding, NMDAR2B expressing HEK cell membranes; assay type: biochemical; conditions: 50 μM glutamate; for EC50: read-out: NMDAR2B B: log EC50 (converted); for Emax: read-out: NMDAR2B A: % maximal [3H]MK-801 binding relative to 1 mM glycine
T3 construct: expressed in transfected cells; host or cells: HEK cells (membrane extract)
How it was run: as §3

[4] = Oral pharmacokinetics in Sprague Dawley rats (plasma, brain, CSF); assay type: in vivo; conditions: rat
Procedure: In another experiment, Sprague Dawley rats were dosed per os (oral gavage) using a normal saline formulation containing 10 mg/kg of the compounds identified in the table below. Plasma, brain, and CSF samples were analyzed at various time points over a 24 hour period. The table below summarizes the results of the oral pharmacokinetics, where the first three values (Tmax, Cmax and AUClast) are plasma values.

NMDAR2D [5] = molecular target: T4, NMDAR2D (Homo sapiens, UniProt O15399); test: NMDAR agonist assay, [3H]MK-801 binding, NMDAR2D expressing HEK cell membranes; assay type: biochemical; conditions: 50 μM glutamate
T4 construct: expressed in transfected cells; host or cells: HEK cells (membrane extract)
T4 sequence (O15399 28-1336, species assumed, other chains not shown): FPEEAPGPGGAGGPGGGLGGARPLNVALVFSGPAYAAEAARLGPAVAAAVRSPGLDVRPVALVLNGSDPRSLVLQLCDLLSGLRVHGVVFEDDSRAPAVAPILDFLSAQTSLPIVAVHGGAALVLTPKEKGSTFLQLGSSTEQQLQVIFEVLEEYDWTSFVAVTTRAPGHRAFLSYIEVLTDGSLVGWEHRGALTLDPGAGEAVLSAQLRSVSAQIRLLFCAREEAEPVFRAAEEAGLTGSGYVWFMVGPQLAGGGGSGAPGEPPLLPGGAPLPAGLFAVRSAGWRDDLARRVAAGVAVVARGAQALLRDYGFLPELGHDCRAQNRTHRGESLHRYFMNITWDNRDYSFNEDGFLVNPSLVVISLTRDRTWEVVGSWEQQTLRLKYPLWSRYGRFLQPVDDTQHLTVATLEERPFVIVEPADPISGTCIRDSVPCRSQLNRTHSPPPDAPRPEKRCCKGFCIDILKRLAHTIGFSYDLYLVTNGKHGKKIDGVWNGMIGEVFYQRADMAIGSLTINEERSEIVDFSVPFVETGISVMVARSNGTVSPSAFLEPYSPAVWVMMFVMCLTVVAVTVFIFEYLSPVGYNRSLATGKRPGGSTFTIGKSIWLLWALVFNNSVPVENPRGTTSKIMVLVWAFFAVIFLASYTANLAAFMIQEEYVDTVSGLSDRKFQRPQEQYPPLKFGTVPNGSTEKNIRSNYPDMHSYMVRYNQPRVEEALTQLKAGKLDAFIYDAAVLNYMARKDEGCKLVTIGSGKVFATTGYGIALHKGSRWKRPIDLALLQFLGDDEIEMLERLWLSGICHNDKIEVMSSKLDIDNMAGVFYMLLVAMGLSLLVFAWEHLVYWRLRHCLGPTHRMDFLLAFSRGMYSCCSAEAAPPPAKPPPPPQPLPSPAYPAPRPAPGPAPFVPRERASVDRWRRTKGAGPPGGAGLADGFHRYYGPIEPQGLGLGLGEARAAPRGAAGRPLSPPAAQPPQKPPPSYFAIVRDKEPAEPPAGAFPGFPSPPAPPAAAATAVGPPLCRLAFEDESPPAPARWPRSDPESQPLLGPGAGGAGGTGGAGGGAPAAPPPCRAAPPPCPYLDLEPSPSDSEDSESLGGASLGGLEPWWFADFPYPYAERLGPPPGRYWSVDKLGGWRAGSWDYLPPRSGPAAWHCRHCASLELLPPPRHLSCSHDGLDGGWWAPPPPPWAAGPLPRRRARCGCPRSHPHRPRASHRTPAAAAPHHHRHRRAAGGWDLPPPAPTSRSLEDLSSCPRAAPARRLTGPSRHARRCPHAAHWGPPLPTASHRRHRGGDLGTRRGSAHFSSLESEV
Procedure: as §4, §5, §6, §7

Plasma stability (Human) = assay type: in vitro ADME; conditions: after 60 minutes
Procedure: as §1

NMDAR2D [6] = molecular target: T5, NMDAR2D (Homo sapiens, UniProt O15399+Q05586); test: NMDAR agonist assay, [3H]MK-801 binding, NMDAR2D expressing HEK cell membranes; assay type: biochemical; conditions: 50 μM glutamate; read-out: NMDAR2D B: log EC50 (converted)
T5 construct: expressed in transfected cells; host or cells: HEK cells (membrane extract)
T5 sequence (O15399 28-1336, species assumed, other chains not shown): as above
Procedure: as §4, §5, §6, §7

[7] = Sprague-Dawley, in vivo, iv, read-out: Cmax
[8] = Sprague-Dawley, po, per os, 10 mg/kg, plasma, read-out: Tmax
[9] = Sprague-Dawley, plasma, po, 10 mg/kg, per os
[10] = Sprague-Dawley, plasma, po, 10 mg/kg, per os 10 mg/kg
[11] = Sprague-Dawley, plasma, po, 10 mg/kg, per os, 10 mg/kg, plasma, read-out: Cmax

Row | Plasma (Rat): percent of compound remaining (Plasma stability (Rat)) [%] | Microsomal (Human): percent of compound remaining [1] [%] | EC50 (NMDAR2A) [nM] | EC50 (NMDAR2C) [nM] | NMDAR2C A: % maximal [3H]MK-801 binding relative to 1 mM glycine (NMDAR2C) | Microsomal (Rat): percent of compound remaining [3] [%] | EC50 (NMDAR2B) [nM] | CSF Cmax ([4]; per os, 10 mg/kg) [ng/mL] | Brain Cmax ([4]; per os, 10 mg/kg) [ng/mL] | NMDAR2D A: % maximal [3H]MK-801 binding relative to 1 mM glycine (NMDAR2D [5]) | Plasma (Human): percent of compound remaining (Plasma stability (Human)) [%] | Emax (NMDAR2A; relative to 1 mM glycine) [%] | EC50 (NMDAR2D [6]) [nM] | AUC(0-t) ([2]; Sprague-Dawley, in vivo, iv) [ng·h/mL] | clearance ([2]; Sprague-Dawley, in vivo, iv) [mL/min/kg] | half-life ([2]; Sprague-Dawley, in vivo, iv) [min] | Cmax [2, 7] [ng/mL] | Vd ([2]; Sprague-Dawley, in vivo, iv) [L/kg] | SMILES | % reduction in float time (Sprague Dawley rats; 1 h post-dose) [%] | Significance vs. vehicle (Sprague Dawley rats; 1 h post-dose) | also measured
1 | 79 | 79 | < 1 | < 1 | + (<100%=+) | 91 | < 1 | 2324.1 | 1213 | + (<100%=+) | 100 |  |  |  |  |  |  |  | CC(C)(C)OC(=O)N1CCCC12CCCNC2=O (single isomer, unassigned) [EV-2, tert-butyl 6-oxo-1,7-diazaspiro[4.5]decane-1-carboxylate] | 84 | Yes | NMDAR2A A: % maximal [3H]MK-801 binding relative to 1 mM glycine (NMDAR2A; relative to 1 mM glycine): + (<100%=+); AUClast [2]: 1138.1 ng·h/mL; Cl [2]: 28.4 mL/min/kg; Cmax [2]: 2608.4 ng/mL; T1/2 [2]: 24.6 min; Vss [2]: 0.88 L/kg; % reduction in float time (Sprague Dawley rats; 24 h post-dose): 76%; Significance vs. vehicle (Sprague Dawley rats; 24 h post-dose): Yes; NMDAR2B A: % maximal [3H]MK-801 binding relative to 1 mM glycine (NMDAR2B; relative to 1 mM glycine): + (<100%=+); % F ([4]; per os 10 mg/kg): 63%; AUC(0-last) ([4]; per os, 10 mg/kg, plasma): 3567.9 ng·h/mL; Cmax ([4]; per os, 10 mg/kg, plasma): 4346 ng/mL; Tmax ([4]; per os, 10 mg/kg, plasma): 15 min; EC50 (NMDAR2D [5]; read-out: NMDAR2D B: log EC50 (converted)): < 1 nM
2 |  |  | < 1 |  |  |  |  |  |  | + (<100%=+) |  | < 100 | < 1 |  |  |  |  |  | CC(C)(C)OC(=O)N1CCCCCC12CNC2=O (single isomer, unassigned) [EI-1, tert-butyl 1-oxo-2,5-diazaspiro[3.6]decane-5-carboxylate] |  |  | 
3 | 94 | 95 | < 1 | < 1 | + (<100%=+) | 100 | < 1 | 1414.8 | 1457.4 | + (<100%=+) | 98 | < 100 | < 1 | 1270 | 26.2 | 25.2 | 2730 | 0.72 | CC(C)(C)OC(=O)N1CCCC12CCCNC2=O (single isomer, unassigned) [EV-1, tert-butyl 6-oxo-1,7-diazaspiro[4.5]decane-1-carboxylate] | 53 | Yes | % reduction in float time (Sprague Dawley rats; 24 h post-dose): 45%; Significance vs. vehicle (Sprague Dawley rats; 24 h post-dose): Yes; Emax (NMDAR2B; relative to 1 mM glycine): < 100%; Tmax [4, 8]: 15 min; AUC(0-t) [4, 9]: 2850 ng·h/mL; bioavailability [4, 10]: 45%; Cmax [4, 11]: 3690 ng/mL
4 | 97 | 99 | < 1 |  |  | 98 | < 1 | 4433.95 | 3556.03 |  | 91 |  |  | 11500 | 2.84 | 244 | 1630 | 1.15 | O=C1NCC=CCC12CC(F)(F)CN2 (single isomer, unassigned) [GL-2, 3,3-difluoro-1,7-diazaspiro[4.6]undec-9-en-6-one] | 6 | No | Tmax [4, 8]: 30 min; AUC(0-t) [4, 9]: 30500 ng·h/mL; bioavailability [4, 10]: 53%; Cmax [4, 11]: 5820 ng/mL
5 | 100 | 100 | ≥ 1 | < 1 | ++ (>100%=++) | 91 | < 1 | 199.26 | 514.7 | 0% | 100 | < 100 |  | 1840 | 17.8 | 84.6 | 1620 | 1.63 | O=C1NCCCC[C@]12CCCN2 [AU-1, (S)-1,7-diazaspiro[4.6]undecan-6-one] | 86 | Yes | Emax (NMDAR2B; relative to 1 mM glycine): < 100%; Tmax [4, 8]: 60 min; AUC(0-t) [4, 9]: 6960 ng·h/mL; bioavailability [4, 10]: 75%; Cmax [4, 11]: 2440 ng/mL
6 |  |  |  | < 1 | + (<100%=+) |  | < 1 |  |  | + (<100%=+) |  | 0 | < 1 |  |  |  |  |  | O=C1NCCCC[C@@]12CCCN2 [AU-2, (R)-1,7-diazaspiro[4.6]undecan-6-one] |  |  | NMDAR2A B: log EC50 (NMDAR2A): −; Emax (NMDAR2B; relative to 1 mM glycine): < 100%
